Calls of active or inactive are those of the source.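 Rule for the calls: active = compounds giving half or more protection of infected cells from virus-caused growth loss, again on retest; inactive = the rest.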 Where a SMILES comes first, the peptide text is derived from it. [ ]: non-standard residue; d: D form. The star is where a group is joined. ξ: configuration not given here. Boc = CC(C)(C)OC(=O)*; ξV = CC(C)C(N)C(=O)O; OBn = c1ccc(CO*)cc1
Test system: CEM cells HIV-1 protection, formazan growth assay
Test: NCI AIDS Antiviral Assay
Settings: for IC50: measured here: growth of uninfected CEM cells
How it was run: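 Five concentrations of each compound were applied to infected and uninfected human CEM cells. Protection from HIV-1 was judged from growth measured with a soluble formazan assay.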

NC(N)=Nc1ccc(-c2ccc(N=C(N)N)cc2)cc1
EC50: > 200 µM
IC50: 25.1 µM

Fc1cccc2c(SCc3ccc(Cl)cc3Cl)cnnc12
EC50: > 15.5 µM
IC50: > 15.5 µM

c1cc2c3c(c1)ncn3C[C@@H]1CCCN1C2
EC50: > 295 µM
IC50: > 295 µM

O=C(O)c1ccc(Nc2nc3ccccc3nc2-c2cccs2)cc1
EC50: > 200 µM
IC50: 60.3 µM

CN(C)C=C(S(C)(=O)=O)S(C)(=O)=O
EC50: > 200 µM
IC50: 126 µM

COC(=O)C1CCC(=S)N1C(=O)OCc1ccccc1 (stereo not drawn)
EC50: > 200 µM
IC50: > 200 µM

O=C(Cc1nc2ccccc2s1)C(=O)Nc1cccc(C(F)(F)F)c1
outcome: inactive

CSc1nnc2sc(=S)[nH]n12
EC50: > 200 µM
IC50: > 200 µM

Cc1ccc2c(c1)C(=O)/C(=C\c1ccccc1)CCS2(=O)=O
EC50: > 200 µM
IC50: 2.88 µM

CC(C)[C@@H]1ON1C(C)c1ccccc1 (stereo partly drawn)
EC50: > 200 µM
IC50: > 200 µM

N#CSC1CCCCCCC1SC#N (stereo not drawn)
EC50: > 200 µM
IC50: 10.5 µM

COP(=N[Si](C)(C)C)(OC)OC
EC50: > 200 µM
IC50: > 200 µM

C[n+]1c(-c2ccc(/C=N\NC(=O)c3cncc(C(=O)N/N=C/c4ccc(-c5cn6ccccc6[n+]5C)cc4)c3)cc2)cn2ccccc21
EC50: > 7.41 µM
IC50: > 7.41 µM

COc1ccccc1NC(=O)c1nc2ccc([N+](=O)[O-])cc2nc1C
EC50: > 148 µM
IC50: > 148 µM

CC1(Cl)C(=O)NC(=O)N([C@H]2C[C@H](O)[C@@H](CO)O2)C1N=[N+]=[N-] (stereo partly drawn)
EC50: > 200 µM
IC50: > 200 µM

CCP(=O)(CC)C(Cl)Cl
EC50: > 200 µM
IC50: > 200 µM

C[N+]1(CCO)C2CCC1CC(O)C2 (stereo not drawn)
EC50: > 200 µM
IC50: > 200 µM

CC(=O)O[C@H]1CSC[C@@H](OC(C)=O)C1[N+](=O)[O-] (stereo partly drawn)
EC50: > 692 µM
IC50: 33.1 µM

O=C(NCCCn1ccnc1[N+](=O)[O-])C(=O)NCCCn1ccnc1[N+](=O)[O-]
EC50: > 200 µM
IC50: > 200 µM

COc1ccc(Cc2c3cc(O)c(=O)cc-3ccn2C)cc1OC
EC50: > 15.8 µM
IC50: 8.13 µM

CC(=O)Nc1cc2cc(NS(=O)(=O)c3cc(C(F)(F)F)cc(C(F)(F)F)c3)ccc2oc1=O
EC50: > 27.5 µM
IC50: > 27.5 µM

C=C1CC[N+]2(CC(C)C)CCCC12 (stereo not drawn)
EC50: > 501 µM
IC50: > 501 µM

O=c1[nH]nc(-c2cccc([N+](=O)[O-])c2)[nH]1
EC50: > 200 µM
IC50: 148 µM

Nc1ncnc2c1C=C(B(O)O)B(O)N2
EC50: > 126 µM
IC50: 74.1 µM

Cc1ccc(NC(=S)/C(=C(\[O-])c2ccc([N+](=O)[O-])cc2)[n+]2ccc(C(C)C)cc2)c(C)c1
EC50: > 200 µM
IC50: 158 µM

NC(=O)C(N)c1ccccc1 (stereo not drawn)
EC50: > 200 µM
IC50: > 200 µM

COc1ccc2c(c1)C/C(=C\c1ccc(O)c(OC)c1)C2=O
EC50: > 200 µM
IC50: > 200 µM

O=S1c2ccccc2Sc2ccccc21
EC50: 75.9 µM
IC50: 174 µM

FC(F)(F)c1cc(NC2=NCCN=C(Nc3cc(C(F)(F)F)cc(C(F)(F)F)c3)SS2)cc(C(F)(F)F)c1
EC50: > 200 µM
IC50: 3.16 µM

COc1ccc2c(c1)CC1(O)COc3cc(OC)ccc3C1O2 (stereo not drawn)
EC50: > 200 µM
IC50: 67.6 µM

NC(=O)c1ncn(C/C=C/CO)c1N
EC50: > 200 µM
IC50: > 200 µM

CCOC(=O)/C(C#N)=C/c1ccc(CO)o1
EC50: > 200 µM
IC50: > 200 µM

Cn1c(=O)c2nc(-c3ccccc3)nnc2n(CCO)c1=O
EC50: > 200 µM
IC50: 41.7 µM

C=CCCNCC/C=C\[Si](C)(C)C
EC50: > 1260 µM
IC50: 1230 µM

COc1cc(Oc2nc3ccccc3nc2C(=O)O)cc(OC)c1OC
EC50: > 200 µM
IC50: > 200 µM

CSc1ccc(-c2cn3ccsc3n2)c(O)c1
EC50: > 85.1 µM
IC50: 17.4 µM

C[C@H]1CCC/C=C/[C@@H]2C[C@H](OC(=O)CN(C)C)C[C@H]2[C@H](O)/C=C/C(=O)O1
EC50: > 2 µM
IC50: 0.339 µM

CN(C)CC1CCCC(CN(C)C)C1=NOC(=O)c1ccccc1 (stereo not drawn)
EC50: > 200 µM
IC50: 174 µM

CCN(CC)CC(C(=O)Nc1c(C)cccc1C)/C(C)=N\NC(=O)c1ccncc1 (stereo not drawn)
EC50: > 33.1 µM
IC50: > 33.1 µM

CC(C)C(NC(=O)CNC(=O)OC(C)(C)C)C(=O)OCc1ccccc1 (stereo not drawn) (Boc-Gly-[ξV]-OBn)
EC50: > 200 µM
IC50: 148 µM

COc1ccc(-c2nc3c(nc2-c2ccc(OC)cc2)C(N)=NS(=O)(=O)N3)cc1
EC50: > 166 µM
IC50: > 166 µM

O=C1NC(=S)NC(=O)C1=Cc1ccc(Cl)c(Cl)c1
EC50: > 87.1 µM
IC50: > 87.1 µM

Cc1cccc2nc3nc(Cl)c(Cl)nc3n12
EC50: > 200 µM
IC50: 129 µM

CN(C)CCN1C(=O)c2ccccc2N(C)c2ccccc21
EC50: > 200 µM
IC50: > 200 µM

CCOC(=O)c1cc2c(C(=O)c3ccc([N+](=O)[O-])cc3)c(C(C)=O)ccc2[nH]1
EC50: > 200 µM
IC50: 174 µM

O=C(NNC(=S)NC1OC(CO)C(O)C(O)C1O)c1cccc(C(=O)NNC(=S)NC2OC(CO)C(O)C(O)C2O)n1 (stereo not drawn)
IC50: > 200 µM

N=C(N)N=Nc1cc(O)c(NN=C(N)N)cc1O
EC50: > 200 µM
IC50: 110 µM

CCCCCCCCO/N=C\c1c2c(O)c3c(O)c(C)c4c(c3c1O)C(=O)C(C)(O/C=C\C(OC)C(C)C(OC(C)=O)C(C)C(O)C(C)C(O)C(C)/C=C\C=C(\C)C(=O)N2)O4 (stereo not drawn)
EC50: > 200 µM
IC50: 3.89 µM

COC1C(OC(=O)c2ccc(C)[nH]2)C(O)C(Oc2ccc3c(O)c(NC(=O)c4c[nH]c(C(=O)Nc5c(O)c6ccc(OC7OC(C)(C)C(OC)C(OC(=O)c8ccc(C)[nH]8)C7O)c(C)c6oc5=O)c4C)c(=O)oc3c2C)OC1(C)C (stereo not drawn)
EC50: > 28.2 µM
IC50: 7.41 µM

C=C1[C@H](OC(=O)C(C)C)[C@]23CC4(O)[C@@H]5[C@@]6(C)CCC[C@]57C([C@@H]2C[C@@]1(O)[C@H](O)[C@@H]73)N4C6
EC50: 61.7 µM
IC50: > 200 µM

O=P(O)(O)C1CCCC(P(=O)(O)O)N1 (stereo not drawn)
outcome: inactive

Cc1c2n(c(=O)[nH]c1=O)C1OC(CO)C(O2)C1N=[N+]=[N-] (stereo not drawn)
EC50: 135 µM
IC50: > 200 µM

CC1NC(=O)C2=C1C(=O)NC(=O)C2 (stereo not drawn)
EC50: 40.7 µM
IC50: 195 µM

O=C1C[C@@H]2C(COC(=O)c3ccccc3)N(OCc3ccccc3)C[C@@H]2O1 (stereo partly drawn)
EC50: > 97.7 µM
IC50: > 97.7 µM

COC(=O)CSc1nc2[nH]c(SC)c(C(N)=O)c2c(=O)n1-c1ccccc1
EC50: > 200 µM
IC50: > 200 µM

Cc1nn(-c2ccccc2)c2nc3ccc(Cl)cc3c(-c3ccccc3)c12
EC50: > 200 µM
IC50: > 200 µM

COCCCCCCCCCCCC(=O)O
EC50: > 200 µM
IC50: > 200 µM

O=C(CN1C(=O)c2ccccc2C1=O)OCC1CCCN2CCCCC12 (stereo not drawn)
EC50: > 200 µM
IC50: > 200 µM

CNCC(=O)NC(CO)C(=O)NC(CO)C(=O)NC1C(C(N)=O)OC(n2ccc(N)nc2=O)C(O)C1O (stereo not drawn)
outcome: inactive

O=c1[nH]cnc2c1CN(c1ccccc1)C2
EC50: > 234 µM
IC50: > 234 µM

CC(=O)/C(=C\c1ccccc1)C(=O)Nc1ccccc1
EC50: > 38 µM
IC50: > 38 µM

NC(=O)c1nc(-c2ccc(Cl)c(Cl)c2)nc2ccccc12
outcome: inactive

CCCCCCCCCCCC1CC(=O)NCCCN(C)CCCCN(C)CCCN1C (stereo not drawn)
EC50: > 200 µM
IC50: 1.12 µM

COc1cc(C(C#N)NNC(=O)Cc2ccccc2)cc(OC)c1OC (stereo not drawn)
EC50: > 191 µM
IC50: 93.3 µM

Cc1ccc([Si](O)(c2ccc(C)cc2)c2ccc(C)cc2)cc1
EC50: > 200 µM
IC50: 12 µM

COc1ccc(/C=C/C(=O)OCCc2ccccc2)cc1OC
EC50: > 25.1 µM
IC50: > 25.1 µM

Cc1ccc(Nc2nc(N)[nH]c(=O)c2N=O)cc1
EC50: > 200 µM
IC50: 14.8 µM

CCOC(=O)C1=C(C)N(NC(=O)c2ccccc2)C2(O)CCCC12C(=O)OCC (stereo not drawn)
EC50: > 447 µM
IC50: 245 µM

O=C(O)c1c[nH]cc1C(=O)O
outcome: inactive

Cc1occc1C(=S)Nc1ccc(Cl)c(C(=O)OC(C)(C)C)c1
EC50: 0.0339 µM
IC50: 9.33 µM

C/C(CC(=O)Nc1cccc(C)c1C)=N\NC(N)=S
EC50: > 468 µM
IC50: 245 µM

Cc1nc(SCC(N)=O)c2sc(=S)n(-c3ccccc3)c2n1
EC50: > 200 µM
IC50: > 200 µM

O=C(O)/C=C/C(=O)Nc1ncn[nH]1
EC50: > 1380 µM
IC50: 1320 µM

Clc1ccc(C2SCc3nc4ccccc4n32)c(Cl)c1 (stereo not drawn)
outcome: inactive

O=c1oc2c(ccc3c(O)cccc32)c2c1CCCC2
EC50: > 200 µM
IC50: > 200 µM

Cn1c2c(c3ccccc31)CC(=O)N1CCCC(C1)CC21OCCO1 (stereo not drawn)
EC50: > 200 µM
IC50: > 200 µM

O=S1(=O)CCCS(=O)(=O)C1CC1S(=O)(=O)CCCS1(=O)=O
EC50: > 245 µM
IC50: > 245 µM

N.N.N.N.O=C([O-])CCl.O=C([O-])CCl.[Co+3].[O-][Cl+3]([O-])([O-])[O-]
outcome: inactive

Cc1cc(C)c(C#N)c(SSC(Cl)(Cl)Cl)n1
EC50: > 200 µM
IC50: 32.4 µM

CC(C)(C)OC(=O)C1=C(O)C(C(=O)OC(C)(C)C)C23CCCCC12C(C(=O)OC(C)(C)C)C(O)=C3C(=O)OC(C)(C)C (stereo not drawn)
outcome: inactive

CC12CC(c3ccccc3N1)C1CC2(C)Nc2ccccc21
EC50: > 64.6 µM
IC50: > 64.6 µM

COC(=O)[C@@H]1[C@H]2CC[C@]3(C)[C@@H](OC(C)=O)CC[C@H]3[C@@H]2CC[C@H]1C1(C)SCCS1
EC50: 10 µM
IC50: 24 µM

NNC(=O)C(=O)N/N=C1/CCCC1C(=O)CCC(=O)Nc1ccc(Cl)cc1 (stereo not drawn)
EC50: > 66.1 µM
IC50: > 66.1 µM

O=C(NC(CSSCC(NC(=O)c1cnc2ccccc2n1)C(=O)O)C(=O)O)c1cnc2ccccc2n1 (stereo not drawn)
EC50: > 200 µM
IC50: > 200 µM

N#Cc1cccc(N2C(=O)C3C4C=CC(C3C2=O)C2C(=O)N(c3cccc(C#N)c3)C(=O)C42)c1 (stereo not drawn)
outcome: inactive

Oc1ccc2c(c1)CC[N+]1=C2CCC2CCCC21 (stereo not drawn)
EC50: > 209 µM
IC50: > 209 µM

CCOc1cc2c(cc1O)/C(=N\OC)C[C@@H]1[C@@H]2CC[C@]2(C)[C@@H](O)CC[C@@H]12
EC50: > 200 µM
IC50: 0.0724 µM

CCCCCCCCCCCC(=O)OCCOCCOCCOCCOCCOCc1ccccc1
outcome: inactive

CC1C(=O)CC2OC3CC(C)(Cl)C(Br)CC31C2(C)C (stereo not drawn)
outcome: inactive

CC1(C)CSC(=S)N1
EC50: > 200 µM
IC50: > 200 µM

— PubChem BioAssay AID179 (DTP/NCI, 2004)
